Here are results for two compounds from publication PMC4961623 (Journal of neurochemistry, 2016).

For the experiment, the target named is T1, sterol carrier protein-2 (SCP-2) (Homo sapiens, UniProt P22307).
T1 sequence (P22307 425-547): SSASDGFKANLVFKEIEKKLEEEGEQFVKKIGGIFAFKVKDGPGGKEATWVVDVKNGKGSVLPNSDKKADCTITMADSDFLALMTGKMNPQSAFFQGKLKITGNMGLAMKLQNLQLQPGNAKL
The experiment can be described thus: fluorescent cis-parinaric acid displacement assay. Type of experiment: binding.

The term Ki denotes a dissociation constant, usually derived from enzyme kinetics or from competition with a known ligand. Low readings indicate a stronger hold on the target, high ones a looser hold on the target.

The compound `CCCCC/C=C\C/C=C\C/C=C\C/C=C\CCCC(=O)NCCO` [AEA, arachidonoylethanolamide] registered a Ki of 290 ± 10 nM.
In turn, `CCCCC/C=C\C/C=C\C/C=C\C/C=C\CCCC(=O)OC(CO)CO` [2-AG, 2-arachidonoylglycerol] showed a Ki of 200 ± 10 nM.
